Assay results taken from patent US6734171B1, “Methods for encapsulating nucleic acids in lipid bilayers” (Inex Pharmaceuticals Corp., priority 1997, dated 2004).

What was measured:
Splenocytes = experiment: Cytokine release (IL-2, IL-4 ELISA) of splenocytes stimulated in vitro; type: cell-based, Balb/c mice; conditions: spleen cells of Diluent treated mice; label = in vitro stimulation
Method: Splenocytes (1×10^6 cells/ml) were either nonstimulated or cultured in the presence of various concentrations of either empty INEX324 vesicles, or INEX324-LacZ formulation at different times after culture initiation (24 h and 48 h). The levels of cytokine in the cell culture supernatant (Interleukin-2 and Interleukin-4) were determined by an ELISA assasy (below).
Cytokine-specific ELISA assays were performed using the protocol and specific anti-interleukin antibodies provided by reagent mini-kit (Endogen, Woburn MA). Briefly, Immuno-module (F8-maxisorb) 96-well plates were coated overnight with anti-IL-2, or anti-IL-4 antibody. Plates were washed with PBS-Tween 20 (0.05%) and blocked with PBS-Tween 20-BSA (2%) for 1 hour at room temperature. Supernatant samples and standards (diluted in blocking buffer) were added and allowed to incubate overnight. Plates were washed and biotinylated anti-IL-2 or anti-IL-4 antibody was added. After 2 hours incubation, plates were washed and HRP-Extravidin, followed by TMB, was added to each well. Plates were read on a plate reader at OD450nm. The amount of released cytokine was determined by comparing the O.D. of test supernatants to a standard curve of serially diluted cytokine standards.

Unseparated spleen cells = experiment: Cell proliferation assay (3H-thymidine) of spleen cells stimulated in vitro; type: cell-based, Balb/c mice; conditions: spleen cells of Diluent treated mice; label = in vitro stimulation
Method: Mice, 12 per group, were injected intravenously (i.v.) with TCS formulations as described below. In this study four injections were given at intervals of seven days over a period of five weeks (Table 4). Group A was injected with INEX324 expressing LacZ reporter gene on day 0, 7 and 14 (150 μl per mouse of INEX324-LacZ, 75 μg DNA). Two weeks after the last LacZ injection, mice were injected with INEX324-Luc (150 μl per injection, 80 μg DNA). To evaluate the immunogenicity of INEX324 lipid, Group B received three injections of INEX324 empty vesicles (150 μl per mouse) and one injection of INEX324-Luc two weeks later. Group C served as a base-line control, mice were given 150 μl of diluent at each time point. Mice from Group D received three diluent injections, followed by a single injection of INEX324-Luc, and served as a positive control for luciferase expression. Three mice from each group were sacrificed at 18 hours after each injection, or 24 hours prior to the following injection. Blood was collected and the serum samples were analyzed for the presence of antibodies specific for β-galactosidase using an ELISA assay. […] Splenocytes were monitored for expression, of differentiation (CD4, CD8, CD22, CD11b) and activation (CD86, MHC-II, Ly-6A/E, CD54 and CD25) markers. […]
Unseparated spleen cells were tested in vitro for their ability to proliferate upon re-stimulation with the empty INEX324 vesicles, INEX324-LacZ formulation, LacZ, transgene product (r-β-galactosidase), or with polyclonal activators for T (Concanavalin A, Con A) and […] (Lipopolysaccharide, LPS). […] An isolated cell suspension was separated from debris by removing the supernatant and the cell number was quantified using a Coulter counter (Coulter Instruments, Miami, Fla.). […] The levels of incorporated radioactivity were measured in a scintillation counter. ^3H-thymidine incorporation is expressed total ^3H-incorporation (DPMs), or as a mean percentage (±SD) of media control and plotted versus lipid concentration values.

| Substance | Cytokine release IL-2 (Splenocytes) [OD450] | Cytokine release IL-4 (Splenocytes) [OD450] | 3H-incorporation (Unseparated spleen cells) [DPMs] |
| --- | --- | --- | --- |
| Concanavalin A [ConA] | 0.615 | 0.138 | 215542 |
| Lipopolysaccharide [LPS] | – | – | 35676 |
| r-β-gal: transgene product (r-β-galactosidase) | 0.059 | 0.103 | 18336 |
